Inhibition and Ki data for 7 molecules are collected here from US20100204182A1, “ECTONUCLEOTIDASE INHIBITORS” (RHEINISCHE FRIEDRICH-WILHELMS-UNIVERSITAT BONN, priority 2006, published 2010).

The target of one test is hP2Y12 (Homo sapiens, UniProt Q9H244). The experiment in a line: Inhibition of [3H]PSB-0413 binding at hP2Y12. The settings on record: mean ± SEM, read-out: hP2Y12 % Inhibition of [^3H]PSB-0413 Binding at 10 μM, n = 3. As for the experimental part: (§1) In table 2 inhibition data of selected examples at human P2Y receptor subtypes were collected. It can be seen that no compound was identified that inhibited P2Y receptors at high concentrations of 100 μM and 10 μM, respectively.

A further test has as its target T1, human NTPDase1 (Homo sapiens, UniProt P49961).
T1 sequence (P49961 1-510): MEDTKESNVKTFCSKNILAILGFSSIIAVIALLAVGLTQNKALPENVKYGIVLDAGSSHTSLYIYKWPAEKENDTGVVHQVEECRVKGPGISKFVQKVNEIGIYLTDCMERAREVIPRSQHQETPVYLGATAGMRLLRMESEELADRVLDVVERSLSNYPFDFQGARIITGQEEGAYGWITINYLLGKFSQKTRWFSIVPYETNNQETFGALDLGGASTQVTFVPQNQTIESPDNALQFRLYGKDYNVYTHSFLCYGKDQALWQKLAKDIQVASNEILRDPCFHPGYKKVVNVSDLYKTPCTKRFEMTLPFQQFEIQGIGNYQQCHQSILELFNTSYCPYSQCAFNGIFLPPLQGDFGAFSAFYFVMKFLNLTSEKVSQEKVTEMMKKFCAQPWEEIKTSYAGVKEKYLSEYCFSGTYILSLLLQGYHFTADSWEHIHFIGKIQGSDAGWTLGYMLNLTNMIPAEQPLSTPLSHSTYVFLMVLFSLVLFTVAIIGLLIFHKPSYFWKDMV
The experiment in a line: NTPDase inhibition assay by capillary electrophoresis (CE), NTPDase1. It is filed as biochemical. As to conditions: CE method, ATP 320 μM, Km 17 μM, read-out: NTPDase1 Ki [μM] ± SEM. As for the experimental part:
The applied enzyme inhibition assay has been described (Iqbal J, Vollmayer P, Braun N, Zimmermann H, Müller C E. A capillary electrophoresis method for the characterization of ecto-nucleoside triphosphate diphosphohydrolases (NTPDases) and the analysis of inhibitors by in-capillary enzymatic microreaction. Purinergic Signalling 2005, 1, 349-358).
A. CE instrumentation: All experiments were carried out using a P/ACE MDQ capillary electrophoresis system (Beckman Instruments, Fullerton, Calif., USA) equipped with a UV detection system coupled with a diode-array detector (DAD). Data collection and peak area analysis were performed by the P/ACE MDQ software 32 KARAT obtained from Beckman Coulter. The capillary temperature was kept constant at 25° C. The temperature of the sample storing unit was also adjusted to 25° C. The electrophoretic separations were carried out using an eCAP polyacrylamide-coated fused-silica capillary [(30 cm (20 cm effective length)×50 μm internal diameter (I.D.)×360 μm outside diameter (O.D.), obtained from CS-Chromatographie (Langerwehe, Germany)]. The separation was performed using an applied current of −60 μA and a data acquisition rate of 8 Hz. Analytes were detected using direct UV absorbance at 210 nm. The capillary was conditioned by rinsing with water for 2 min and subsequently with buffer (phosphate 50 mM, pH 6.5) for 1 min. Sample injections were made at the cathodic side of the capillary.
B. NTPDase inhibition assay by capillary electrophoresis: Enzyme inhibition assays were carried out at 37° C. in a final volume of 100 μl. The reaction mixture contained 320 μM of ATP (substrate) in reaction buffer. The reaction buffer contained 140 mM NaCl, 5 mM KCl, 1 mM MgCl2, 2 mM CaCl2, and 10 mM Hepes, pH 7.4.
Different concentrations of inhibitors dissolved in DMSO or water (10 μl) were added and the reaction was initiated by the addition of 10 μl of the appropriately diluted recombinant or native human or rat NTPDase enzyme. […] The mixture (final volume 100 μl) was incubated for 15 min and terminated by heating at 99° C. for 4 min. Aliquots of the reaction mixture (50 μl) were then transferred to mini-CE vials and injected into the CE instrument under the conditions described above. 20 μM of UMP was used as internal standard. Inhibition of NTPDase was tested over a range of 6 to 8 concentrations of test compound spanning 3 orders of magnitude to determine K1 values. Each analysis was repeated two times (in triplicates) in two separate experiments. The Cheng-Prusoff equation was used to calculate the K1 values from the IC50 values, determined by the non-linear curve fitting program PRISM® 3.0 (GraphPad, San Diego, Calif., USA). In table 1K, values of selected compounds as inhibitors of human NTPDases are given.

In the next test the target is hP2Y2 (Homo sapiens, UniProt P41231). The experiment in a line: Inhibition of UTP binding at hP2Y2. As to conditions: read-out: hP2Y2 % inhibition of UTP binding at 100 μM, n = 3, mean ± SEM. As for the experimental part:
as §1

The target of the next test is T2, human NTPDase2 (Homo sapiens, UniProt Q9Y5L3).
T2 sequence (Q9Y5L3 1-495): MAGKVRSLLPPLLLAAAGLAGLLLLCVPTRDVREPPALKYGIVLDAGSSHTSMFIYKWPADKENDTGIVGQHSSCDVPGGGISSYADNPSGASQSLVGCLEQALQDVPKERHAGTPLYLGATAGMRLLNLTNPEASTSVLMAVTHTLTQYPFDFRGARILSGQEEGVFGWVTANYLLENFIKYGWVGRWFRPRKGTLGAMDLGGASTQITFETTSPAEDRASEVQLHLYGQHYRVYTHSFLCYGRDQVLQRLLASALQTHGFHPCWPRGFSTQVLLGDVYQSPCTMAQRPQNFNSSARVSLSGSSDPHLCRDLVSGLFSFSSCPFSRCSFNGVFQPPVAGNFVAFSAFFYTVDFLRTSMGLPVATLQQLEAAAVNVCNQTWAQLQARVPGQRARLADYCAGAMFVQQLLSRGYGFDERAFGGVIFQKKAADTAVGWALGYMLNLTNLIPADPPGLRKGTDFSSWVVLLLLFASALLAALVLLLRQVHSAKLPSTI
The experiment in a line: NTPDase inhibition assay by capillary electrophoresis (CE), NTPDase2. It is filed as biochemical.

For a further test, the target named is hP2Y4 (Homo sapiens, UniProt P51582). The experiment in a line: Inhibition of UTP binding at hP2Y4. As to conditions: read-out: hP2Y4 % inhibition of UTP binding at 100 μM, n = 3, mean ± SEM. As for the experimental part:
as §1

The next test has as its target rP2Y6 (Rattus norvegicus, UniProt Q63371). As to the kind of experiment: Inhibition of UDP binding at rP2Y6. As to conditions: read-out: rP2Y6 % inhibition of UDP binding at 100 μM, n = 3, mean ± SEM.
The next test has as its target T3, rat ecto-5′-nucleotidase (Rattus norvegicus, UniProt P21588).
T3 construct: Catalytically active recombinant soluble glutathione-S-transferase/ecto-5′-nucleotidase fusion protein; GST (glutathione-S-transferase); made in house; host or cells: insect cells, baculovirus system
T3 sequence (P21588 29-551 limits assumed): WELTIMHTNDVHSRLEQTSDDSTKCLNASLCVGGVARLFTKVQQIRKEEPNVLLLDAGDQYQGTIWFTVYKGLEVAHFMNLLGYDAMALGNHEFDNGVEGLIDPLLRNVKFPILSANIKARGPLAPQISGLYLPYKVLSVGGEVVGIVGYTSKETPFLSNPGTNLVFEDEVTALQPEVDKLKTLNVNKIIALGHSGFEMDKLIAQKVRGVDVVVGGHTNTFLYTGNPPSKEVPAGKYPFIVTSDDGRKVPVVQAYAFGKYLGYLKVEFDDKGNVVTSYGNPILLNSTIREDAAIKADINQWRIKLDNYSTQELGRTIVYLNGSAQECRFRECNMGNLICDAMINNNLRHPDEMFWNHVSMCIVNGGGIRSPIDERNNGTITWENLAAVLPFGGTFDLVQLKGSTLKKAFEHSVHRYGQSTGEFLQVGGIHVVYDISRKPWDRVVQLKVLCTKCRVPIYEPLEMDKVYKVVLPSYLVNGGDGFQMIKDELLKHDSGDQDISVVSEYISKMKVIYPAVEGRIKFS
As to the kind of experiment: Ecto-5′-nucleotidase assay by capillary electrophoresis (CE). As to conditions: CE method, read-out: Rat Ecto-5′-NT Ki [μM] ± SEM. The format is biochemical. As for the experimental part: Catalytically active recombinant soluble glutathione-S-transferase/ecto-5′-nucleotidase fusion protein was expressed in insect cells using the baculovirus system and purified by affinity chromatography using agarose-coupled GSH as previously described [Servos, J., Reilander, H., Zimmermann, H. Drug. Dev. Res. 1998, 45, 269-276]
Enzyme assays were carried out at 37° C. in a final volume of 100 μl. The reaction buffer consisted of 10 mM Hepes (2.38 g/L), 2 mM MgCl2 […], and 1 mM CaCl2 (0.11 g/L), brought to pH 7.4 by adding the appropriate amount of 1-N aqueous HCl solution. The reaction was initiated by the addition of 10 μl of the appropriately diluted enzyme (0.52 μg). The reaction mixture was incubated for 10 min and terminated by heating at 99° C. for 5 min. Nucleosides and nucleotides were stable under these conditions. Aliquots of the reaction mixture (50 μl) were then transferred to mini-CE vials containing 50 μl of the internal standard uridine (final concentration 20 μM). In the absence of an internal standard similar results were obtained. Each analysis was repeated twice (duplicates) in three separate experiments.
CE separations were carried out using a P/ACE MDQ system (Beckman Coulter Instruments, Fullerton, Calif., USA) equipped with a DAD detection system. The electrophoretic separations were carried out using an eCAP fused-silica capillary [30 cm (20 cm effective length)×75 μm internal diameter (I.D), ×375 μm outside diameter (O.D) obtained from Beckman Coulter]. The following conditions were applied: T=25° C., λmax=260 nm, voltage=15 kV, running buffer 40 mM sodium borate buffer, pH 9.1. The capillary was washed with 0.1 M NaOH for 2 min, deionized water for 1 min, and running buffer for 1 min before each injection. Injections were made by applying 0.1 psi of pressure to the sample solution for 30 s. The amount of adenosine formed was determined. The CE instrument was fully controlled through a personal computer, which operated with the analysis software 32 KARAT obtained from Beckman Coulter. Electropherograms were evaluated using the same software.

SMILES strings stand for the structures.

hP2Y2, sequence (P41231 whole entry): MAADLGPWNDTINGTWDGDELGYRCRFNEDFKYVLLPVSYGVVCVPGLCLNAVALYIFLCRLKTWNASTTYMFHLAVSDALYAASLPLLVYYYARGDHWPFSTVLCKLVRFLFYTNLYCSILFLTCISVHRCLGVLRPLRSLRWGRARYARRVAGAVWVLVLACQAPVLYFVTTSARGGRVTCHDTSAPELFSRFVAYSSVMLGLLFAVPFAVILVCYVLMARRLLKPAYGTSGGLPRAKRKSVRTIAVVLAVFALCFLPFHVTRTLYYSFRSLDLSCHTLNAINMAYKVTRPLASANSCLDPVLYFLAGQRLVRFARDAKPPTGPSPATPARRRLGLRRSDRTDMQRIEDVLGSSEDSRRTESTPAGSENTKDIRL
hP2Y12, sequence (Q9H244 whole entry): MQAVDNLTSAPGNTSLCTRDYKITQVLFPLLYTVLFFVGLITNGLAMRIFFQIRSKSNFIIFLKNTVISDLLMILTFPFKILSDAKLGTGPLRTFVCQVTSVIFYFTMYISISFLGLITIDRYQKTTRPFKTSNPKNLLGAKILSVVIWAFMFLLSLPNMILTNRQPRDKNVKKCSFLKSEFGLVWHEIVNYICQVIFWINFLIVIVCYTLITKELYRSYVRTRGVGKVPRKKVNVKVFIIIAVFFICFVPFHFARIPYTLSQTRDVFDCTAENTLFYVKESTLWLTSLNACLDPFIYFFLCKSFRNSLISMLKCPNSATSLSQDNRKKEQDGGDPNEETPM
rP2Y6, sequence (Q63371 whole entry): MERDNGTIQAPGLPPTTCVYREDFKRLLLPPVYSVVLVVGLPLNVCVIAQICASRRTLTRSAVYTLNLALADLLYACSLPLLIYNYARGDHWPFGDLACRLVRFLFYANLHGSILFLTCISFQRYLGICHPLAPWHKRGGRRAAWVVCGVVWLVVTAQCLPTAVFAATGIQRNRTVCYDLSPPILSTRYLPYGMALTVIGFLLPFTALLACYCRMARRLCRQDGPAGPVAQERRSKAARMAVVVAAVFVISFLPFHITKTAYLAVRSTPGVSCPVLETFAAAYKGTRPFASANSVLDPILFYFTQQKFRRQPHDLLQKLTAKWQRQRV
hP2Y4, sequence (P51582 whole entry): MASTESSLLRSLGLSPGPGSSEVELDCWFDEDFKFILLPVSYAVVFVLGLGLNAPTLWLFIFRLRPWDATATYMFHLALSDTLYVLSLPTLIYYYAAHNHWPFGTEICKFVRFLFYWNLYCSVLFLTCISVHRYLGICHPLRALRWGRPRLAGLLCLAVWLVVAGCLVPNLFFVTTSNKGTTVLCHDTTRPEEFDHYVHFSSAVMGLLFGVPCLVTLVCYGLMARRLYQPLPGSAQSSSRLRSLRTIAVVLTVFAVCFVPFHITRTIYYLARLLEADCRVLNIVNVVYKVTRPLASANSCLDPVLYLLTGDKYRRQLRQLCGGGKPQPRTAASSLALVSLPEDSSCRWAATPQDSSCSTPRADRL

Usually inhibition stands for the drop in the measured response relative to a control, in per cent. In general, Ki refers to a dissociation constant, usually derived from enzyme kinetics or from competition with a known ligand. As for `CCOP(=O)(OCC)C(NC(=O)CNC(=O)[C@H]1O[C@@H](n2ccc(=O)[nH]c2=O)C(O)C1O)P(=O)(OCC)OCC` (stereo in doubt) [Compound 10, 2-[(2S,3R,4S,5R)-5-(2,4-Dioxo-3,4-dihydropyrimidin-1(2H)-yl)-3,4-dihydroxy-tetrahydrofurane-2-carboxamido]ethaneamidomethylenediphosphonic acid tetraethylester], at hP2Y12, the inhibition at 10 µM came out at 2 ± 5%. Also, the Ki at human NTPDase1 is 93 ± 14 µM; at human NTPDase2, roughly 165 µM. The figures for the inhibition at 100 µM on hP2Y2, on hP2Y4 and on rP2Y6 were -38 ± 11%, 34 ± 15% and 8 ± 14%, respectively. In addition, the inhibition at 1000 µM on human NTPDase2 (read-out: NTPDase2 inhibition (%) at 1 mM) worked out at 54%.
Turning to `O=C(CNC(=O)[C@H]1O[C@@H](n2ccc(=O)[nH]c2=O)C(O)C1O)Nc1ccc(CP(=O)(O)O)cc1` (stereo in doubt) [Compound 21, 4-[2-((2S,3R,4S,5R)-5-(2,4-Dioxo-3,4-dihydropyrimidine-1(2H)-yl)-3,4-dihydroxy-tetrahydrofurane-2-carboxamido)ethaneamido]benzylphosphonic acid], the Ki on rat ecto-5′-nucleotidase was 6.47 ± 1.31 µM.
Consider `O=C(O)CCC(NC(=O)CCNC(=O)[C@H]1O[C@@H](N2CCC(=O)NC2=O)[C@H](O)[C@@H]1O)C(=O)O` (stereo partly drawn) [Compound 14, 2-[3-((2S,3R,4S,5R)-5-(2,4-Dioxo-3,4,5,6-tetrahydropyrimidin-1(2H)-yl)-3,4-dihydroxy-tetrahydrofurane-2-carboxamido)propaneamido]-(S)-glutamic acid], for which the Ki is 0.78 ± 0.18 µM at rat ecto-5′-nucleotidase and 10.8 ± 1 µM at human NTPDase1. At hP2Y12, the inhibition at 10 µM amounted to 6 ± 4%.
On to `CCOC(=O)C(CC(=O)O)NC(=O)CCCNC(=O)[C@H]1O[C@@H](n2ccc(=O)[nH]c2=O)[C@H](O)[C@@H]1O` (stereo partly drawn) [Compound 15, 2-[4-((2S,3R,4S,5R)-5-(2,4-Dioxo-3,4-dihydropyrimidin-1(2H)-yl)-3,4-dihydroxy-tetrahydrofurane-2-carboxamido)butaneamido]-(S)-aspartic acid-1-ethylester], for which, at human NTPDase1, the Ki was 29 ± 4 µM. Also, the inhibition at 100 µM on hP2Y2 was -28 ± 11%.
Regarding `O=C(O)C[C@H](NC(=O)CCCNC(=O)[C@H]1O[C@@H](N2CCC(=O)NC2=O)[C@H](O)[C@@H]1O)C(=O)O` [Compound 23, 2-[4-((2S,3R,4S,5R)-5-(2,4-Dioxo-3,4,5,6-tetrahydropyrimidine-1(2H)-yl)-3,4-dihydroxy-tetrahydrofurane-2-carboxamido)butaneamido]-(S)-aspartic acid], on rat ecto-5′-nucleotidase, the Ki was 0.18 ± 0.014 µM.
Regarding `O=C(O)CC[C@H](NC(=O)CNC(=O)[C@H]1O[C@@H](N2CCC(=O)NC2=O)[C@H](O)[C@@H]1O)C(=O)O` [Compound 24, 2-[2-((2S,3R,4S,5R)-5-(2,4-Dioxo-3,4,5,6-dihydropyrimidine-1(2H)-yl)-3,4-dihydroxy-tetrahydrofurane-2-carboxamido)ethaneamido]-(S)-glutamic acid], on rat ecto-5′-nucleotidase, the Ki was 34.3 ± 0.2 µM.
Consider `Cc1cn([C@@H]2O[C@H](C(=O)NCCCC(=O)NC(CC(=O)O)C(=O)O)[C@@H](O)[C@H]2O)c(=O)[nH]c1=O` (stereo partly drawn) [Compound 25, 2-[4-((2S,3R,4S,5R)-5-(2,4-Dioxo-5-methylpyrimidin-1(2H)-yl)-3,4-dihydroxy-tetrahydrofurane-2-carboxamido)butaneamido]-(S)-aspartic acid], for which the Ki at rat ecto-5′-nucleotidase was found to be 1.61 ± 0.62 µM.
